From patent US11001590B2, “Pyrazolopyrimidine derivatives” (BAYER ANIMAL HEALTH GMBH, priority 2016, dated 2021)

Columns and labels:
[1] = tested on: Nippostrongylus brasiliensis; assay: In vitro assay 2: Nippostrongylus brasiliensis (NIPOBR), acetylcholine esterase readout; conditions: adult worms, read-out: activity (reduction of AChE compared to negative control); for inhibition at 1 µg/mL: 1 μg/ml (1 ppm); for inhibition at 10 µg/mL: 10 μg/ml (10 ppm)
Procedure, shortened: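 Adult worms were washed in saline with antibiotics/antimycotic, then incubated with compound at 10 μg/ml (10 ppm) or 1 μg/ml (1 ppm) final, from DMSO stock. Acetylcholine esterase activity in a medium aliquot, compared with a negative control, served as the anthelmintic readout.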

C. elegans Slo-1a = C. elegans Slo-1a (Caenorhabditis elegans, UniProt Q95V25); assay: In vitro assay 1: C. elegans Slo-1a, action at a recombinant C. elegans CHO cell line (membrane potential measurement)
Protocol: In Vitro Assay 1: C. Eleqans Slo-La—Action at a Recombinant C. elegans Cell Line
Cells were cultured at 37° C. and 5% CO2 in MEMalpha with Gutamax I (Invitrogen, Nr.: 32571), supplemented with 10% (v/v) heat inactivated fetal bovine serum (Invitrogen, Nr.: 10500), G418 (1 mg/ml, Invitrogen, Nr.: 10131). Cells were detached using Accutase (Sigma, Nr.: A6964).
Membrane Potential Measurements
Laboratory compound testing was performed on 384-well microtiter plates (MTPs, Greiner, Nr.: 781092). 8000 cells/well were plated onto 384-well MTPs and cultured for 20 to 24 hours at 37° C. and 5% CO2. After removal of the cell culture medium, the cells were washed once with tyrode (150 mM NaCl, 0.3 mM KCl, 2 mM CaCl2, 1 mM MgCl2, 0.8 mM NaH2PO4, 5 mM Glucose, 28 mM Hepes, pH 7.4) and then loaded with the voltage sensitive dye of the Membrane Potential Assay Kit diluted in tyrode for 1 h at room temperature.
After starting the measurement of fluorescence using a FLIPR Tetra (Molecular Devices, Exc. 510-545 nm, Emm. 565-625 nm), test compounds were added followed by the addition of KCl tyrode (final assay concentration: 70 mM KCl, 2 mM CaCl2, 1 mM MgCl2, 0.8 mM NaH2PO4, 5 mM Glucose, 28 mM Hepes, pH 7.4, including the voltage sensitive dye). The measurement was completed after 7 minutes.

Cooperia curticei = assay: In vitro assay 5: Cooperia curticei (COOPCU), larval mortality; conditions: 120 h, read-out: activity (percentage of larval mortality)
Protocol: In Vitro Assay 5: Cooperia curticei (COOPCU)
Solvent: Dimethyl Sulfoxide
Approximately 40 nematode larvae (Cooperia curticei) are transferred into a test tube containing the compound solution.
After 5 days percentage of larval mortality is recorded. 100% efficacy means all larvae are killed; 0% efficacy means no larvae are killed.

[2] = tested on: Litomosoides sigmodontis third-stage larvae; assay: In vitro assay 7: Litomosoides sigmodontis L3 (LTMOSI), motility; conditions: 72 h, reduction of motility vs negative control, 72 h incubation
Protocol: In Vitro Assay 7: Litomosoides Siqmodontis L3 (LTMOSI)
10 Litomosoides sigmodontis third-stage larvae, which were freshly isolated from the pleural cavity of an infected rodent, were added to wells of a microtitre plate containing a nutrient medium and the test compound in DMSO. Compounds were tested in concentration-response assay in duplicate. Larvae exposed to DMSO and no test compounds were used as negative controls. Larvae were evaluated after 72 h of incubation with the compound. Efficacy was determined as the reduction of motility in comparison to the negative control. Based on the evaluation of a wide concentration range, concentration-response curves as well as ECso-values were calculated.

[3] = log P by HPLC on reversed phase columns (Method L0; [a] acidic, [b] neutral range)
Protocol: Calibration was done with straight-chain alkan-2-ones (with 3 to 16 carbon atoms) with known log P values (measurement of log P values using retention times with linear interpolation between successive alkanones). Lambda-max-values were determined using UV-spectra from 200 nm to 400 nm and the peak values of the chromatographic signals.

Haemonchus contortus = assay: In vitro assay 6: Haemonchus contortus (HAEMCO), larval mortality; conditions: Haemonchus contortus, 120 h, read-out: activity (percentage of larval mortality)
Protocol: In Vitro Assay 6: Haemonchus contortus (HAEMCO)
Solvent: dimethyl sulfoxide
Approximately 40 larvae of the red stomach worm (Haemonchus contortus) are transferred into a test tube containing compound solution.
After 5 days the percentage of larval mortality is recorded. 100% efficacy means all larvae are killed, 0% efficacy means no larvae are killed.

[4] = tested on: Dirofilaria immitis microfilariae; assay: In vitro assay 3: Dirofilaria immitis microfilariae (DIROIM L1), motility; conditions: 72 h, reduction of motility vs negative control, 72 h incubation
[5] = tested on: Dirofilaria immitis third-stage larvae; assay: In vitro assay 4: Dirofilaria immitis (DIROIM L4), motility of larvae; conditions: 72 h

C. elegans Slo-1a, sequence (Q95V25 whole entry): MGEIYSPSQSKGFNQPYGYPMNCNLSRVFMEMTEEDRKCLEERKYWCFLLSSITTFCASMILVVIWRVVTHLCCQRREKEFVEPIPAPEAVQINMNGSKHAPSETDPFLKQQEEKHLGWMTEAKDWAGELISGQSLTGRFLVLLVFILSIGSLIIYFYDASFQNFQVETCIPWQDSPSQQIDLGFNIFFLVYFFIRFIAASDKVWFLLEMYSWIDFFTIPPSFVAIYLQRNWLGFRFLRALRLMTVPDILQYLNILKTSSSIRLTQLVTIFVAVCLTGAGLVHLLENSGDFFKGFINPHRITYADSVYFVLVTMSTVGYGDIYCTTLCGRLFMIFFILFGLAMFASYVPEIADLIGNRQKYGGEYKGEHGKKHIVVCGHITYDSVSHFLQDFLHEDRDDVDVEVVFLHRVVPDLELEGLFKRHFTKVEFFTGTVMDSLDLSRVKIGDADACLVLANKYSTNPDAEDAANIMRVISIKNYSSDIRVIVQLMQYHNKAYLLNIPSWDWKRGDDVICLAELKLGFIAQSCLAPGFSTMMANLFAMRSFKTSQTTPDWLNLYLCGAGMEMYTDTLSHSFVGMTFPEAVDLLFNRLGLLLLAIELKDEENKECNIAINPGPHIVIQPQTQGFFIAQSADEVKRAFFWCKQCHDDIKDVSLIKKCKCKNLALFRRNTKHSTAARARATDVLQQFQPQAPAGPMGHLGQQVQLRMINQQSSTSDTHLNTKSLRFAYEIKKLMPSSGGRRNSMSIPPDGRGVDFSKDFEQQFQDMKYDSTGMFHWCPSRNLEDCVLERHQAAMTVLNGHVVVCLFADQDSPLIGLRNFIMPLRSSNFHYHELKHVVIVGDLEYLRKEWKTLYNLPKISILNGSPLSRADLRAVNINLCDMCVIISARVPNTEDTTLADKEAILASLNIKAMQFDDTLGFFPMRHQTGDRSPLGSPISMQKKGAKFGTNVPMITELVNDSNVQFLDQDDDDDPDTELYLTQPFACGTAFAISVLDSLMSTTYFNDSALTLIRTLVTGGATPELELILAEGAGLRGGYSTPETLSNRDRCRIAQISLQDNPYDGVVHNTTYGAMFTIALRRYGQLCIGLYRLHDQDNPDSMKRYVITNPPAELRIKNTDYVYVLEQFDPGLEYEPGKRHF

With Cc1nn2c(C(C)C)c(C(=O)N[C@H]3CCOc4ccccc43)cnc2c1-c1cccc2c1CCN2C [Example 461] the inhibition at 1 µg/mL [1] was over 80%, the inhibition at 10 µg/mL [1] was over 80% and the EC50 (C. elegans Slo-1a) was 2 nM. For the same molecule, the mortality at 20 ppm (Cooperia curticei) was 90%, the EC50 [2] was under 0.1 µg/mL and the chromatographic logP [3] was 4.11. The mortality at 20 ppm (Haemonchus contortus) was 80%, the EC50 [4] was under 1 µg/mL and the EC50 [5] was under 0.1 µg/mL.

Cc1nn2c(C3CC3)c(C(=O)N[C@H]3CCOc4ccccc43)cnc2c1-c1cccc(F)c1Cl [Example 472] showed an inhibition at 1 µg/mL [1] of over 80%, an EC50 (C. elegans Slo-1a) of 1.58 nM and a mortality at 20 ppm (Cooperia curticei) of 80%. For the same molecule, the EC50 [2] was under 0.1 µg/mL, the chromatographic logP [3] was 3.72 and the mortality at 4 ppm (Haemonchus contortus) was 80%. For the same molecule, the EC50 [4] was under 0.1 µg/mL and the EC50 [5] was under 0.1 µg/mL.

With Cc1nn2c(N3CCOCC3)c(C(=O)N[C@H]3CCOc4ccccc43)cnc2c1-c1cccc(Cl)c1Cl [Example 517] the inhibition at 1 µg/mL [1] was over 80%, the inhibition at 10 µg/mL [1] was over 80% and the EC50 (C. elegans Slo-1a) was 0.631 nM. It also gave a mortality at 20 ppm (Cooperia curticei) of 100%, an EC50 [2] of under 0.1 µg/mL and a chromatographic logP [3] of 3.51. The mortality at 20 ppm (Haemonchus contortus) was 100%, the EC50 [4] was under 0.1 µg/mL and the EC50 [5] was under 0.1 µg/mL.

Molecule Cc1nn2c(N(C)C)c(C(=O)N[C@H]3CCOc4ccccc43)cnc2c1-c1cccc(Cl)c1Cl [Example 518] has an inhibition at 1 µg/mL [1] of over 80%, an inhibition at 10 µg/mL [1] of over 80% and an EC50 (C. elegans Slo-1a) of 1 nM. The mortality at 20 ppm (Cooperia curticei) was 100%, the EC50 [2] was under 0.1 µg/mL and the chromatographic logP [3] was 3.94. It also gave a mortality at 20 ppm (Haemonchus contortus) of 100%, an EC50 [4] of under 0.1 µg/mL and an EC50 [5] of under 0.1 µg/mL.

For COc1c(F)cc(F)c(-c2c(C)nn3c(N4CCOCC4)c(C(=O)N[C@H]4CCOc5ccccc54)cnc23)c1F [Example 531], the inhibition at 1 µg/mL [1] was over 80%, the EC50 (C. elegans Slo-1a) was 1 nM and the mortality at 20 ppm (Cooperia curticei) was 100%. For the same molecule, the EC50 [2] was under 0.1 µg/mL, the chromatographic logP [3] was 2.88 and the mortality at 20 ppm (Haemonchus contortus) was 100%. It also gave an EC50 [4] of under 0.1 µg/mL and an EC50 [5] of under 0.1 µg/mL.
